Results published in article PMC6357863, “Dithiocarbamate-inspired side chain stapling chemistry for peptide drug design” (Chemical Science, 2018).

Legend:
[1] = circular dichroism; details: phosphate buffer (PB); pH 7.2; 20 °C; 10-50 uM
[2] = molecular target: T1, synthetic 24–108MDMX (p53-binding domain) (Homo sapiens, UniProt O15151); assay: SPR-based competition binding assay on 15–29p53-immobilized CM5 chip, MDMX; details: 25 °C, MDMX at 100 nM, 10 mM HEPES, 150 mM NaCl, 0.005% P20, pH 7.4, free MDMX quantified on 15–29p53 chip, two replicates, three independent experiments
T1 construct: made in house; host or cells: total chemical synthesis (native chemical ligation of 24-75 thioester with 76-108); no expression host
T1 sequence (O15151 24-108): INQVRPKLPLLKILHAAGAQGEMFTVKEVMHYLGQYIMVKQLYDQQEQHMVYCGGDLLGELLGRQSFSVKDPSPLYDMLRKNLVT
Experimental: and three independent experiments were performed.
Fluorescence polarization (FP).
(§1) As an additional positive control, we
Tecan Infinite M1000 plate reader. […]
additional incubation for 64 hours.
Circular Dichroism (CD) Spectroscopy. […]
(§2) from 10-50 μM. […] The spectra were […]
of each peptide was calculated as reported previously. 12
Stability in GSH. […] RP-

[3] = Circular dichroism spectroscopy, helical content; assay type: physicochemical; details: CD, PB pH 7.2, 10-50 μM peptide, 20 °C
Experimental: Circular Dichroism (CD) Spectroscopy.
as §2

[4] = system: HCT116 p53+/+ cells; assay: Cell viability assay (CCK8), HCT116 p53+/+; assay type: cell-based, human; details: concentrations of up to 50 μM, 8 h serum-free then 64 h with serum
Experimental: (§3) and three independent experiments were performed. […]
(§4) Tecan Infinite M1000 plate reader.
(§5) additional incubation for 64 hours. […]

[5] = system: HCT116 p53-/- cells; assay: Cell viability assay (CCK8), HCT116 p53-/-; assay type: cell-based, human; details: concentrations of up to 50 μM, 8 h serum-free then 64 h with serum
Experimental: as §3, §1, §4, §5

[6] = system: HCT116 cells; assay: Cellular uptake by confocal microscopy; assay type: cell-based, human; details: 20 μM peptide N-terminally conjugated to FITC via aminocaproic acid, HCT116 p53+/+ cells, 4 h, fixed, DAPI
Experimental: Although cationicity is not a universal molecular signature of cell-penetrating peptides, it plays a critical role in the ability of stapled peptides to traverse the cell membrane to exert biological activity.[10],[22],[28]
Cellular uptake of DTCPMI. A fluorescent FITC moiety was appended via an aminocaproic acid to the N- […]
and allowed to grow overnight. Cells were then incubated with 20 µM FITC-DTCPMI for 4 h. Cells were washed with Dulbecco's phosphate buffered saline, fixed with 4% (wt/vol) paraformaldehyde, finally incubated by DAPI to stain the cell nucleus. Imaged using an LSM 510 Zeiss Axiovert 200M (v4.0) confocal microscope. Images were analyzed using an LSM image browser. […]
μM) in serum-free media for 8 hours. The cells were lysed (20 mM Tris-HCl pH 8.0, 0.8 % SDS, 1 mM PMSF, 1 U mL-1 benzonase nuclease) and the crude lysates were clarified by brief centrifugation and total protein concentration was determined by using the Pierce BCA protein assay. Aliquots containing 5 μg of total protein were run on 4-12% Bis-Tris polyacrylamide gels (Invitrogen). Proteins were detected by chemiluminescence reagent (Perkin Elmer) using antibodies specific for p53 (Santa Cruz Biotechnology), MDM2 (Santa Cruz Biotechnology), p21 (Merck Millipore), and β-actin (Sigma-Aldrich). […]

| Kd [2] [nM] | α-Helix (%) [3] [%] | intracellular localization (confocal microscopy) [6] | SMILES | helicity [1] [%] | anti-proliferative activity against HCT116 p53+/+ [4] | anti-proliferative activity against HCT116 p53-/- [5] |
| --- | --- | --- | --- | --- | --- | --- |
| > 500 | – | – | CC(=O)N[C@H]1CCCCNC(=S)SC[C@@H](C(=O)N[C@@H](Cc2ccc(O)cc2)C(=O)N[C@@H](Cc2c[nH]c3ccccc23)C(=O)N[C@@H](CC(N)=O)C(=O)N[C@@H](CC(C)C)C(=O)N[C@@H](CC(C)C)C(=O)N[C@@H](CO)C(=O)N2CCC[C@H]2C(N)=O)NC(=O)[C@H](C)NC(=O)[C@H](Cc2ccccc2)NC(=O)[C@H](CO)NC1=O [PMI(1,5)-a] | 6.5 | – | – |
| – | 16.6 | – | CC(=O)N[C@H](C(=O)N[C@@H](CO)C(=O)N[C@@H](Cc1ccccc1)C(=O)N[C@@H](CCCCN)C(=O)N[C@@H](CCC(N)=O)C(=O)N[C@@H](Cc1ccc(O)cc1)C(=O)N[C@@H](Cc1c[nH]c2ccccc12)C(=O)N[C@@H](CS)C(=O)N[C@@H](CC(C)C)C(=O)N[C@@H](CC(C)C)C(=O)N[C@@H](CO)C(=O)N[C@@H](CCCNC(=N)N)C(N)=O)[C@@H](C)O [^DTCPMI Ctrl.] | 16.6 | no anti-proliferative activity | no anti-proliferative activity |
| – | – | diffused intracellular localization | CC(=O)N[C@H](C(=O)N[C@@H](CO)C(=O)N[C@@H](Cc1ccccc1)C(=O)N[C@H]1CCCCNC(=S)SC[C@@H](C(=O)N[C@@H](CC(C)C)C(=O)N[C@@H](CC(C)C)C(=O)N[C@@H](CO)C(=O)N[C@@H](CCCNC(=N)N)C(N)=O)NC(=O)[C@H](Cc2c[nH]c3ccccc23)NC(=O)[C@H](Cc2ccc(O)cc2)NC(=O)[C@H](CCC(N)=O)NC1=O)[C@@H](C)O [^DTCPMI] | 62.2 | – | – |
